Measurements as given in patent US11286236B2, “Compound, agent and composition for the suppression of cancer growth” (Vector Vitale IP LLC, priority 2018, dated 2022).
Where a name gives a salt, the structure may show the parent alone.

Experiments:
[1] = test system: Ehrlich ascites carcinoma; assay: In vivo antitumor activity against Ehrlich ascites carcinoma; set-up: species or system mouse
Experimental: Outbred mice were administered Ehrlich ascites carcinoma cells (EAC) intraperitoneally (IP) at a dose of 2.5×10^5 cells in 0.25 ml of normal saline solution. The compounds under study, 1)^85RbeE2, was dissolved in deuterium-depleted water and 2) Cisplatin (Teva, the Netherlands), was dissolved in normal saline solution. The drugs were administered starting from the first day after mice were inoculated with tumor cells, using a microinjection syringe, at the following doses: 1)^85Rbe-E2 at a dose of 750 μg/mouse (weighing 20 g) in a volume of 0.3 ml as 3 IP injections (1 injection—250 μg/mouse) on the 1st, 4th and 7th day of the experiment; 2) Cisplatin at a dose of 4.5 mg/kg or 1.5 mg/kg as 3 IP injections on the 2nd, 5th and 8th day of the experiment. The dynamics of tumor growth in the experimental animals was observed (based on the volume of ascites in the peritoneal cavity) after the tumor cell inoculation and for 31 days of the experiment. On the 15th and 22nd day after IP administration of tumor cells, all the fluid accumulated in each animal's abdomen was extracted and the total number of live/dead cells in each mouse was determined. In addition, some mice were used to assess a survival rate of animals in the experiment.
Laboratory animals. 84 outbred female 10 to 12-week old mice weighing 22-26 g were used in the experimental study. The animals were obtained from the animal vivarium at R.E. Kavetsky IEPOR NASU. […] The animals were maintained in plastic cages, under natural light-dark cycles, fed standard food and allowed free access to food and tap water.
Tumor model. Ascites strain of Ehrlich ascites carcinoma maintained on outbred mice obtained from the cell and tissue line bank at R.E. Kavetsky IEPOR NASU was used in the experiment. To prepare the strain for injection, tumor cells derived from ascitic fluid were placed in normal saline solution and cellularity of the suspension was assessed in a hemocytometer and adjusted to a concentration of 1·10^6 cells/ml with saline solution. The tumor cells were inoculated by injecting 250 mcl of cell suspension from the tumor (0.25×10^6 cells/mouse) into the peritoneal cavity of laboratory animals.
The drugs were administered IP every other day, using a microinjection syringe, at doses specified above as a series of 3 injections of each compound according to the following scheme: ^85Rbe-E2 at a dose of 250 μg/mouse weighing 20 g+CP at a dose of […] 24 hours later (for groups (EAC+CP(4.5)) and (EAC+^85Rbe-E2+CP(4.5)) or […] (for groups (EAC+CP(1.5)) and (EAC+^85Rbe-E2+CP(1.5)) in a volume of 0.25 ml of saline solution (6 injections in total during 8 days).
The tumor growth dynamics in the laboratory animals was observed by daily control of the volume of ascitic fluid in the abdominal cavity of mice starting from the tumor inoculation and for 31 days of the experiment. The dynamics of ascites growth both in control and experimental groups was assessed visually using a 10-point scale, where 0 points were the absence of tumor growth and 10 points were the maximum increase in the size of the abdomen of the mouse with ascites (one point was 0.6 cm of the mean diameter of the mouse abdomen filled with the fluid).
Furthermore, on the 15th and 22nd day after intraperitoneal injection of tumor cells, all ascitic fluid was removed from the abdomen in 2 or 3 animals from each group by washing their peritoneal cavity with saline solution, and live/dead EAC cells were counted in each mouse using the traditional vital dye trypan blue (HyClon, USA) and a hemocytometer.
X=((a)/80)×10^6, where X is the number of cells in 1 ml and a is the number of cells counted in 5 large diagonal squares of the hemocytometer.
7 or 8 mice from each group were used to assess their survival in the experiment. The total lifespan observation time was 31 days from the moment of inoculation of tumor cells.
Statistical data processing. […]

[2] = test system: Mouse B16 melanoma cells (MM-4 cell line); assay: Cytotoxic/cytostatic activity of E2+85Rbe and antitumor drug added simultaneously; assay type: cell-based
Experimental: The effects of the complex action of various doses of the investigated substances were evaluated using the concept of synergistic, additive and antagonistic effects of the drugs. The mathematics are detailed below. […] The effects were calculated using the Chou-Talalay method according to the following equation (“CI” refers to the “combination index”) (see T.-C. […] Where both the ^85Rb-enriched rubidium salt (referred to as “E2+^85Rbe”) and an AD were administered, they were administered simultaneously.

[3] = 85Rbe-E2 750 μg/mouse IP total, alone, 14 mice per group
[4] = Day 15, 85Rbe-E2 750 μg/mouse IP total, alone
[5] = Day 22, 85Rbe-E2 750 μg/mouse IP total, alone
[6] = day 15, 85Rbe-E2 750 μg/mouse IP total, alone
[7] = day 17, 85Rbe-E2 750 μg/mouse IP total, alone
[8] = day 22, 85Rbe-E2 750 μg/mouse IP total, alone
[9] = day 24, 85Rbe-E2 750 μg/mouse IP total, alone
[10] = day 27, 85Rbe-E2 750 μg/mouse IP total, alone
[11] = day 29, 85Rbe-E2 750 μg/mouse IP total, alone
[12] = day 31, 85Rbe-E2 750 μg/mouse IP total, alone

Cc1ccc(S(=O)(=O)Nc2ccccc2NC(=O)c2ccccc2)cc1 [^85Rbe − E2, ^85Rb-enriched rubidium salt of N-benzoyl-N′-(4-toluenesulfonyl)-o-phenylenediamine]
Animals without tumor, % ([1]; 85Rbe-E2 750 μg/mouse IP total, alone): 0% | Number of animals in the group with tumor [1, 3]: 14 | Number of animals in the group without tumor [1, 3]: 0 | Last day with statistically significant inhibition of EAC growth vs control ([1]; 85Rbe-E2 alone): 15 days | Suppression of carcinoma growth vs control, average ([1]; 85Rbe-E2 alone, by the 15th day after inoculation): 18% | Number of dead cells/mouse, % [1, 4]: 4.3 ± 1.5% | Number of live cells/mouse, ×10^6 (M ± m) [1, 4]: 1917 ± 408 ×10^6 | Volume of ascites [1, 4]: 6.5 ± 2.9 mL | Number of dead cells/mouse, % [1, 5]: 15.4 ± 3.6% | Number of live cells/mouse, ×10^6 (M ± m) [1, 5]: 2062 ± 438 ×10^6 | Volume of ascites [1, 5]: 16.4 ± 4.8 mL | Survival, percent of mice ([1]; day 0, 85Rbe-E2 750 μg/mouse IP total, alone): 100% | Size of mouse abdomen, points ([1]; day 9, 85Rbe-E2 750 μg/mouse IP total, alone): 4.4 ± 0.2 points | Size of mouse abdomen, points ([1]; day 13, 85Rbe-E2 750 μg/mouse IP total, alone): 6 ± 0.3 points | Size of mouse abdomen, points [1, 6]: 6.5 ± 0.3 points | Survival, percent of mice [1, 6]: 100% | Size of mouse abdomen, points [1, 7]: 8 ± 0.6 points | Survival, percent of mice [1, 7]: 85.7% | Survival, percent of mice ([1]; day 19, 85Rbe-E2 750 μg/mouse IP total, alone): 85.7% | Size of mouse abdomen, points ([1]; day 20, 85Rbe-E2 750 μg/mouse IP total, alone): 9 ± 0.4 points | Size of mouse abdomen, points [1, 8]: 9.5 ± 0.4 points | Survival, percent of mice [1, 8]: 85.7% | Size of mouse abdomen, points [1, 9]: 10 points | Survival, percent of mice [1, 9]: 85.7% | Survival, percent of mice ([1]; day 25, 85Rbe-E2 750 μg/mouse IP total, alone): 71% | Survival, percent of mice ([1]; day 26, 85Rbe-E2 750 μg/mouse IP total, alone): 71% | Size of mouse abdomen, points [1, 10]: 10 points | Survival, percent of mice [1, 10]: 57% | Survival, percent of mice ([1]; day 28, 85Rbe-E2 750 μg/mouse IP total, alone): 43% | Size of mouse abdomen, points [1, 11]: 10 points | Survival, percent of mice [1, 11]: 29% | Size of mouse abdomen, points [1, 12]: 10 points | Survival, percent of mice [1, 12]: 14% | Effect on the survival rate of mice ([1]; series of IP injections of 85Rbe-E2 alone): did not have a significant effect | % surviving MM-4 cells ([2]; E2+85Rbe 0.5 μg/ml alone): 32.3 ± 0.7% | % surviving MM-4 cells ([2]; E2+85Rbe 1 μg/ml alone): 8.3 ± 0.5% | % surviving MM-4 cells ([2]; E2+85Rbe 2 μg/ml alone): 6.4 ± 0.3%
